Earlier results, collected in paper PMC10649714, “Development and Identification of Novel α-Glucosidase Inhibitory Peptides from Mulberry Leaves” (Foods, 2023).

Molecular target: α-glucosidase (Saccharomyces cerevisiae, UniProt P53341)
Conditions: Binglangjiang buffalo casein peptides
Description: Bioactive peptides are composed of 2–20 amino acids. These peptides have no obvious activity in the macromolecular state but show anti-diabetes, anti-hypertension, anti-inflammation, anti-cancer, and other biological activities after degradation. Enzymatic hydrolysis is commonly employed in both research and industrial settings for the preparation of bioactive peptides due to its favorable attributes, including gentle reaction conditions and the ability to effectively regulate the reaction process. […] Although the precise chemical responsible for this benefit is unknown, the ancient Chinese medicinal book Qi Min Yao Shu referenced the effect of mulberry leaf as tr ... || To further verify the synthesis of peptides, in vitro activity tests were carried out. […] […].

Chain of α-glucosidase (P53341 whole entry): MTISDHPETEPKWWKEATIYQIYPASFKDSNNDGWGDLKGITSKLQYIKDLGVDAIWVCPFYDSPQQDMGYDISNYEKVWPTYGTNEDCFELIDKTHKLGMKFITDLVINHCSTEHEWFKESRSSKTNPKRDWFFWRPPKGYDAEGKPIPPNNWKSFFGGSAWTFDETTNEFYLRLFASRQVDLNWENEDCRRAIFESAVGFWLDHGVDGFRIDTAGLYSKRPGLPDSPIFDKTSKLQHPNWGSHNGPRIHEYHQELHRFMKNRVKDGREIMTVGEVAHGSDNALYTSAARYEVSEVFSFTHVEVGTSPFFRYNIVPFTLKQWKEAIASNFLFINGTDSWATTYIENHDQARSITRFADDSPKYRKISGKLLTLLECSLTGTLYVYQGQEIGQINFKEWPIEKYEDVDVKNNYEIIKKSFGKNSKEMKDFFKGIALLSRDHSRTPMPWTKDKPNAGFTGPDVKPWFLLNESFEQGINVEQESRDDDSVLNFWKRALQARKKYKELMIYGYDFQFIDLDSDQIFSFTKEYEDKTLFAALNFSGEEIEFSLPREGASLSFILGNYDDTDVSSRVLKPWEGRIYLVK

Compound	IC50 ratio of peptide to acarbose
FALPQYLK [Binglangjiang buffalo casein peptide]	approximately 2.5
RNAVPITPTLNR [Binglangjiang buffalo casein peptide]	approximately 2.5
TKVIPYVRYL [Binglangjiang buffalo casein peptide]	approximately 2.5
YLGYLEQLLR [Binglangjiang buffalo casein peptide]	approximately 2.5

Same assay, conditions: Ginkgo biloba seed protein peptides

Compound	IC50 ratio of peptide to acarbose
LSMSFPPF [peptide from Ginkgo biloba seed protein]	1.22
MPGPPSD [peptide from Ginkgo biloba seed protein]	2.54
VPKIPPP [peptide from Ginkgo biloba seed protein]	3.89

Same assay, conditions: in words; ref 9 (LDLQR, AGGFR, LDNFR), 11 (RVPSLM, KLPGF), ref 12 (SEDSSEVDIDLGNLG), ref 13 (TTGGKGGK), ref 14 (KETTTIVR)

Compound	α-glucosidase inhibition in vitro
AGGFR [wheat germ peptide]	excellent
KETTTIVR [spicy wood seed protein-derived peptide]	excellent
KLPGF [egg white protein-derived peptide]	excellent
LDLQR [wheat germ peptide]	excellent
LDNFR [wheat germ peptide]	excellent
RVPSLM [egg white protein-derived peptide]	excellent
SEDSSEVDIDLGNLG [sericin-derived peptide]	excellent
TTGGKGGK [black bean protein-derived peptide]	excellent

Same assay, conditions: wheat germ peptides

Compound	IC50 ratio of peptide to acarbose
AGGFR [wheat germ peptide]	2.54
LDLQR [wheat germ peptide]	2.52
LDNFR [wheat germ peptide]	2.70

Tested on: α-glucosidase (PDB ID: 5ZCE)
Conditions: not given
Description: All hydrogen bonds in this complex with a length less than 3.5 Å were considered to make a close contact, and the binding energy obtained was −8.78 kcal/mol. […] Along with other interaction forces, the binding energy was −8.75 kcal/mol. In addition, […] formed seven hydrogen bonds a ...

Compound	binding sites with α-glucosidase
C[C@@H]1O[C@@H](O[C@H]2C(=O)c3c(O)cc(O)cc3O[C@@H]2c2ccc(O)c(O)c2)[C@H](O)[C@H](O)[C@H]1O [astilbin]	ASP-60, ASP-199, HIS-203, GLN-256, and GLN-328
O=c1c(O)c(-c2ccc(O)cc2O)oc2cc(O)cc(O)c12 [morin]	ASP-60, ASP-199, HIS-203, GLN-256, and GLN-328
O=C(CCc1ccc(O)cc1)c1c(O)cc(O[C@@H]2O[C@H](CO)[C@@H](O)[C@H](O)[C@H]2O)cc1O [trilobatin]	ASP-60, ASP-199, HIS-203, GLN-256, and GLN-328
